Where no end group is shown, it is not given here.
Key:
[1] = test system: supercoiled pBR322 plasmid DNA; assay: DNA gel shift assay (agarose gel electrophoresis); format: binding; conditions: 5–25 μM ligand, in words
Description: DNA Gel Shift Assays. The affinity of EuP3, EuP2, and each free peptide for supercoiled plasmid DNA was examined by agarose gel electrophoresis. Plasmid (pBR322, New England Biolabs, Inc.) was incubated for 15 minutes at room temperature with increasing concentrations of each ligand (5–25 μM), prior to the addition of loading dye. Each lane contained 1 μg plasmid (50 μM base pairs) in 10 mM Tris buffer at pH 8.0.

[2] = target: P4a (34-residue synthetic chimeric peptide: alpha2 and alpha3 of engrailed, minus the last turn of alpha2 and the beta-turn, with calmodulin loop I); assay: measured dissociation constant, method not stated; self-association of the Eu-bound peptide

Kdim (dimerization constant) [2] [µM]	Molecule	gel shift / affinity for supercoiled plasmid DNA [1]	gel shift / affinity for supercoiled plasmid DNA ([1]; listed as free metal)
–	[Cl][Eu]([Cl])[Cl] [EuCl3]	not	not seen
> 300	TERRRFDKDGNGYISAAELRHVKIWFQNKRAKIK (also: also used as Eu(III)-bound form (EuP4a))	–	–

Source: US7091026B2, “Artificial endonuclease” (University of Iowa Research Foundation, priority 2001, dated 2006)
